The values that follow are results of earlier work, collected in US11607623B2, “Dynamic interface system and its application in supercritical fluid extraction and chromatography” (CORNERSTONE TECHNOLOGIES LLC, priority 2019, dated 2023).

Take `CCCCCc1cc(O)c2c(c1)OC(C)(C)[C@@H]1CCC(C)=C[C@@H]21` [THC, delta-9-tetrahydrocannabinol]: for the setting “pressures of 220-240 bar, temperature raised from 42° C. to 72° C.”, the “solubility in SC-CO2, change with temperature” value is on record as “two-fold increase”.

Regarding `CCCCCc1cc(O)c2c(c1)OC(C)(C)c1ccc(C)cc1-2` [CBN, cannabinol], for the setting “220-240 bar, across the 42-72° C. temperature ranges”, the “molar solubility in SC-CO2, course across temperature” value is reported as “inverted-U curve”. For the same molecule, where the note is “lower pressures 160-180 bar”, the “solubility in SC-CO2 at 54° C. relative to 41° C. or 61° C.” value is “two-fold greater”.
